The values below come from patent EP4574819A1, “DIAZINONE COMPOUNDS FOR THE CONTROL OF INVERTEBRATE PESTS” (priority 2023, dated 2025).

SMILES strings stand for the structures. Bounds are passed on as bounds.

Common to all, as to type: in vivo
The test system of data set [1] is Green peach aphid (Myzus persicae). Nature of the data set: Green peach aphid (Myzus persicae) systemic test, artificial diet under artificial membrane. Conditions: adult aphids, 3 days, in comparison with untreated controls. The text has this: B.5 Green peach aphid (Myzus persicae)
For evaluating control of green peach aphid (Myzus persicae) through systemic means, the test unit consisted of 96-well-microtiter plates containing liquid artificial diet under an artificial membrane.
The compounds were formulated using a solution containing 75% v/v water and 25% v/v DMSO. Different concentrations of formulated compounds were pipetted into the aphid diet, using a custom built pipetter, at two replications.
After application, 5 - 8 adult aphids were placed on the artificial membrane inside the microtiter plate wells. The aphids were then allowed to suck on the treated aphid diet and incubated at about 23 ± 1°C and about 50 ± 5 % relative humidity for 3 days. Aphid mortality and fecundity was then visually assessed.

The test system of data set [2] is Boll weevil (Anthonomus grandis). Nature of the data set: Boll weevil (Anthonomus grandis) egg/larval mortality on sprayed insect diet in 96-well microtiter plates. To be noted: 2500 ppm; egg and larval mortality after 5 days; in comparison with untreated controls. The procedure:
B.2 Boll weevil (Anthonomus grandis)
For evaluating control of boll weevil (Anthonomus grandis) the test unit consists of 96-well-microtiter plates containing an insect diet and 5-10 A. grandis eggs.
The compounds are formulated using a solution containing 75% v/v water and 25% v/v DMSO. Different concentrations of formulated compounds are sprayed onto the insect diet at 5µl, using a custom-built micro atomizer, at two replications.
After application, microtiter plates are incubated at about 25 ± 1°C and about 75 ± 5 % relative humidity for 5 days. Egg and larval mortality is then visually assessed.

The test system of data set [3] is Diamond back moth (Plutella xylostella). The data set can be described thus: Diamond back moth (Plutella xylostella) cabbage leaf dip test. Conditions: 3rd instar larvae, 72 hours after treatment, in comparison with untreated controls. The procedure: B.3 Diamond back moth (Plutella xylostella)
The active compound was dissolved at the desired concentration in a mixture of 1:1 (vol:vol) distilled water: acetone. Surfactant (Kinetic HV) was added at a rate of 0.01% (vol/vol). The test solution was prepared on the day of use.
Leaves of cabbage were dipped in test solution and air-dried. Treated leaves were placed in petri dishes lined with moist filter paper and inoculated with ten 3rd instar larvae. Mortality was recorded 72 hours after treatment. Feeding damages were also recorded using a scale of 0-100%.

Data set [4] relates to Yellow fever mosquito (Aedes aegypti). The data set can be described thus: whole plant or invertebrate. To be noted: larval mortality after 2 days, in comparison with untreated controls. As for the experimental part:
B.4 Yellow fever mosquito (Aedes aegypti)
For evaluating control of yellow fever mosquito (Aedes aegypti) the test unit consists of 96-well-microtiter plates containing 200µl of tap water per well and 5-15 freshly hatched A. aegypti larvae.
The active compounds are formulated using a solution containing 75% (v/v) water and 25% (v/v) DMSO. Different concentrations of formulated compounds or mixtures are sprayed onto the insect diet at 2.5µl, using a custom-built micro atomizer, at two replications.
After application, microtiter plates are incubated at 28±1°C, 80±5 % RH for 2 days. Larval mortality is then visually assessed.

The test system of data set [5] is Tobacco budworm (Heliothis virescens). Nature of the data set: Tobacco budworm (Heliothis virescens) egg/larval mortality on sprayed insect diet in 96-well microtiter plates. Conditions: 120 h, egg and larval mortality after 5 days, in comparison with untreated controls. As for the experimental part: B.1 Tobacco budworm (Heliothis virescens)
For evaluating control of tobacco budworm (Heliothis virescens) the test unit consists of 96-well-microtiter plates containing an insect diet and 15-25 H. virescens eggs.
The compounds are formulated using a solution containing 75% v/v water and 25% v/v DMSO. Different concentrations of formulated compounds are sprayed onto the insect diet at 10µl, using a custom-built micro atomizer, at two replications.
After application, microtiter plates are incubated at about 28 ± 1°C and about 80 ± 5 % relative humidity for 5 days. Egg and larval mortality is then visually assessed.

A word on the mortality: it is the share of the test organisms that died. For the compound `CC(NC(=O)c1cc(C(F)(F)F)cc(C(F)(F)F)c1)c1nccnc1C1=NNC(=O)CN1C` (centres unmarked) [Compound I-1, N-(1-(3-(4-Methyl-6-oxo-1,4,5,6-tetrahydro-1,2,4-triazin-3-yl)pyrazin-2-yl)ethyl)-3,5-bis(trifluoromethyl)benzamide], the mortality entry in data set [1] (2500 ppm), in data set [2], in data set [3] (2500 ppm) and in data set [4] (2500 ppm) was “at least 75%” in each case.

For the compound `CC(NC(=O)c1cc(C(F)(F)F)cc(C(F)(F)F)c1)c1nccnc1C1=NN(C)C(=O)CO1` (centres unmarked) [Compound I-4, N-(1-(3-(4-methyl-5-oxo-5,6-dihydro-4H-1,3,4-oxadiazin-2-yl)pyrazin-2-yl)ethyl)-3,5-bis(trifluoromethyl)benzamide], the mortality at 2500 ppm is no less than 75% in data set [1] (Myzus persicae, 72 h); no less than 75% in data set [5]; no less than 75% in data set [3] (Plutella xylostella, foliar); no less than 75% in data set [4] (Aedes aegypti, 48 h).
